Common to all, as to type: cell-based
Assay [1] relates to S. aureus 209P-JC. Kind of assay: In vitro antibacterial activity (MIC), S. aureus 209P-JC. The following applies: Staphylococcus aureus, sensitive disc media, Japan Society of Chemotherapy method, read-out: MIC value (Minimum Inhibitory Concentration). As for the experimental part:
(§1) The in vitro antibacterial activity of the compound of the present invention obtained in Example 9 against various experimental bacteria was measured using sensitive disc media (produced by Eiken Chemical Co.) according to the MIC measuring method specified by the Japan Society of Chemotherapy. 6-O-Methylerythromycin A was used as a comparative drug.

Assay [2] has as its system S. aureus Smith 4. In words: In vitro antibacterial activity (MIC), S. aureus Smith 4. The following applies: Staphylococcus aureus, SMITH4, sensitive disc media, Japan Society of Chemotherapy method, read-out: MIC value (Minimum Inhibitory Concentration). As for the experimental part: as §1
Assay [3] concerns S. epidermides IID 866. In words: In vitro antibacterial activity (MIC), S. epidermides IID 866. The following applies: sensitive disc media, Japan Society of Chemotherapy method, read-out: MIC value (Minimum Inhibitory Concentration). As to the method:
as §1

Assay [4] concerns E. faecalis CSJ 1212. Kind of assay: In vitro antibacterial activity (MIC), E. faecalis CSJ 1212. The following applies: Enterococcus faecalis, CSJ1212, sensitive disc media, Japan Society of Chemotherapy method, read-out: MIC value (Minimum Inhibitory Concentration). As to the method: as §1
Assay [5] concerns S. aureus B1. In words: In vitro antibacterial activity (MIC), S. aureus B1. The following applies: Staphylococcus aureus, sensitive disc media, Japan Society of Chemotherapy method, read-out: MIC value (Minimum Inhibitory Concentration). As for the experimental part: as §1

The structures appear in SMILES notation. In brackets after ≈: the same amount, converted by molar mass.

MIC data for two molecules are collected here from US5602239A, “5-O-desosaminylerythronolide derivatives” (Taisho Pharmaceutical Co., Ltd., priority 1993, dated 1997).

In the case of `CC[C@H]1OC(=O)[C@H](C)[C@@H](O[C@H]2C[C@@](C)(OC)[C@@H](O)[C@H](C)O2)[C@H](C)[C@@H](O[C@@H]2O[C@H](C)C[C@H](N(C)C)[C@H]2O)[C@](C)(OC)C[C@@H](C)C(=O)[C@H](C)[C@@H](O)[C@]1(C)O` [Comparative drug, 6-O-Methylerythromycin A], the MIC in assay [1] was 0.1 mg/L (≈ 0.134 µM); in assay [2], 0.1 mg/L (≈ 0.134 µM); in assay [3], 0.1 mg/L (≈ 0.134 µM); in assay [4], 0.78 mg/L (≈ 1.04 µM); in assay [5], greater than 100 mg/L.

`CC[C@H]1OC(=O)[C@H](C)[C@@H](Oc2ccc([N+](=O)[O-])cc2[N+](=O)[O-])[C@H](C)[C@@H](O[C@@H]2O[C@H](C)C[C@H](N(C)C)[C@H]2O)[C@](C)(OC)C[C@@H](C)C(=O)[C@H](C)[C@H]2OC(=O)O[C@@]21C` [Example 9, 3-O-(2,4-dinitro)phenyl-5-O-desosaminyl-6-O-methylerythronolide A 11,12-cyclic carbonate]: the MIC was 0.1 mg/L (≈ 0.128 µM) in assay [1]; 0.1 mg/L (≈ 0.128 µM) in assay [2]; 0.1 mg/L (≈ 0.128 µM) in assay [3]; 0.2 mg/L (≈ 0.256 µM) in assay [4]; 0.78 mg/L (≈ 0.998 µM) in assay [5].
